According to ChEMBL document CHEMBL6177994 (J Med Chem, 2025):
pIC50: −log10 of the molar value. Values belong to the compound of their own block, whether it stands above or below them. The source made the active and inactive calls. The rule behind the calls is not given here.

Tests used:
[1] = tested on: Protein cereblon/GTPase KRas (Homo sapiens), P01116+Q96SW2 [G12D]; test: PROTAC activity at CRBN/KRAS G12D mutant in human ASPC1 cells assessed as induction of KRAS G12D mutant degradation at 5 nM measured after 24 hrs by immunoblot analysis relative to control; format: cell-based
[2] = tested on: Protein cereblon/GTPase KRas (Homo sapiens), P01116+Q96SW2 [G12D]; test: PROTAC activity at CRBN/KRAS G12D mutant in human ASPC1 cells assessed as induction of KRAS G12D mutant degradation at 50 nM measured after 24 hrs by immunoblot analysis relative to control; format: cell-based
[3] = tested on: Protein cereblon/GTPase KRas (Homo sapiens), P01116+Q96SW2 [G12D]; test: PROTAC activity at CRBN/KRAS G12D mutant in human ASPC1 cells assessed as induction of KRAS G12D mutant degradation at 100 nM measured after 24 hrs by immunoblot analysis relative to control; format: cell-based
[4] = tested on: Protein cereblon/GTPase KRas (Homo sapiens), P01116+Q96SW2 [G12D]; test: PROTAC activity at CRBN/KRAS G12D mutant in human ASPC1 cells assessed as induction of KRAS G12D mutant degradation at 1 uM measured after 24 hrs by immunoblot analysis relative to control; format: cell-based
[5] = tested on: Protein cereblon/GTPase KRas (Homo sapiens), P01116+Q96SW2 [G12D]; test: PROTAC activity at CRBN/KRAS G12D mutant in human ASPC1 cells assessed as induction of KRAS G12D mutant degradation at 5 uM measured after 24 hrs by immunoblot analysis relative to control; format: cell-based
[6] = Antiproliferative activity against human GP2d cells harbouring KRAS G12D mutant assessed as inhibition of cell growth measured after 72 hrs by Cell titer glo method; format: functional, cell-based
[7] = Inhibition of ERK phosphorylation in human GP2d cells harbouring KRAS G12D mutant measured after 24 hrs; format: cell-based
[8] = Antitumor activity against human PK-59 cells xenografted in female Balb/c nude mouse model assessed as tumor growth inhibition at 1.81 mg/kg, iv QW measured after 28 days relative to control; format: functional; conditions: PK-59, 672 h, time 28 day, read-out: TGI
[9] = Inhibition of ERK phosphorylation in human PK-59 cells harbouring KRAS G12D mutant measured after 24 hrs; format: cell-based; conditions: PK-59, 24 h
[10] = Inhibition of ERK phosphorylation in human AGS cells harbouring KRAS G12D mutant measured after 24 hrs; format: cell-based
[11] = Inhibition of ERK phosphorylation in human ASPC1 cells harbouring KRAS G12D mutant measured after 24 hrs; format: cell-based; conditions: ASPC1, 24 h
[12] = Inhibition of Raf (unknown origin)/GTP loaded KRas G12D mutant interaction preincubated for 15 mins followed by anti-tag1-eu3 and Tag2-XL665 antibody addition and measured for 120 mins by HTRF method; parameters: species or system Homo sapiens
[13] = Toxicity in female Balb/c nude mouse xenografted with human PK-59 cells assessed as change in body weight at 1.8 mg/kg, iv QW measured after 28 days; format: organism-based; conditions: in vivo, 672 h, time 28 day
AGS = test: Antiproliferative activity against human AGS cells harbouring KRAS G12D mutant assessed as inhibition of cell growth measured after 72 hrs by Cell titer glo method; format: functional, cell-based
ASPC1 = test: Antiproliferative activity against human ASPC1 cells harbouring KRAS G12D mutant assessed as inhibition of cell growth measured after 72 hrs by Cell titer glo method; format: functional, cell-based; conditions: ASPC1, 72 h
[14] = Antiproliferative activity against human PK-59 cells harbouring KRAS G12D mutant assessed as inhibition of cell growth measured after 72 hrs by Cell titer glo method; format: functional, cell-based; conditions: PK-59, 72 h
[15] = tested on: Protein cereblon/GTPase KRas (Homo sapiens), P01116+Q96SW2 [G12D]; test: PROTAC activity at CRBN/KRAS G12D mutant in human ASPC1 cells assessed as induction of KRAS G12D mutant degradation at 15 nM measured after 24 hrs by immunoblot analysis relative to control; format: cell-based
GTPase KRas = GTPase KRas (Homo sapiens, UniProt P01116, G12D); test: Binding affinity to 6 His-tagged GDP-loaded human KRAS G12D mutant assessed as GDP-GTP exchange preincubated for 30 mins followed by GTP addition for 30 mins by HTRF method
GP2d = test: PROTAC activity at CRBN/KRAS G12D mutant in human GP2d cells assessed as induction of KRAS G12D mutant degradation at 0.004 to 250 nM measured after 24 hrs by immunoblot analysis; format: cell-based; conditions: dose 0.004-250 nM

Sequence of Protein cereblon/GTPase KRas (Homo sapiens), P01116+Q96SW2 [G12D] (P01116 whole entry G12D): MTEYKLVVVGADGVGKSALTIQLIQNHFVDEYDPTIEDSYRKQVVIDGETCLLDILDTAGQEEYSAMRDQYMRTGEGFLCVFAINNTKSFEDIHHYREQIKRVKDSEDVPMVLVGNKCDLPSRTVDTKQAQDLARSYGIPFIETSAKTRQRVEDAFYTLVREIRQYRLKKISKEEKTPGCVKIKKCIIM
Sequence of Protein cereblon/GTPase KRas (Homo sapiens), P01116+Q96SW2 [G12D] (Q96SW2 whole entry partner): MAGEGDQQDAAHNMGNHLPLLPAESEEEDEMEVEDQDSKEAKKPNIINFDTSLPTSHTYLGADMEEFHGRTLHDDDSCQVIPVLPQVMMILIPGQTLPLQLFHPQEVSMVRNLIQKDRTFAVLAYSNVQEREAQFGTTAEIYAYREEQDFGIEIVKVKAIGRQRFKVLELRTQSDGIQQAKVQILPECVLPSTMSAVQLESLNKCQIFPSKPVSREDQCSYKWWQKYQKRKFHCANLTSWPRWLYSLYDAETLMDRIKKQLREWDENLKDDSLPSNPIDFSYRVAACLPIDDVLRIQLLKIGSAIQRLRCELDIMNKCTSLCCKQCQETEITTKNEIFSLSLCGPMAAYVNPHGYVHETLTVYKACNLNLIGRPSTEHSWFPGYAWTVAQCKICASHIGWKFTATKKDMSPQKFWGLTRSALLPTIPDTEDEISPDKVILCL
Sequence of GTPase KRas (P01116 whole entry G12D): as the sequence (P01116 whole entry G12D) above

SMILES: C#Cc1c(F)ccc2cc(O)cc(-c3ncc4c(N5CC6CCC(C5)N6)nc(OCC5(CN6CCC7(CC6)CC(N6CCN(c8ccc(NC9CCC(=O)NC9=O)cc8F)CC6)C7)CC5)nc4c3F)c12 (stereo not given)
Activity [1]: 54% | Activity [2]: 64%

SMILES: C#Cc1c(F)ccc2cc(O)cc(-c3ncc4c(N5CC6CCC(C5)N6)nc(OCCCN5CCN(CC(=O)N6CCN(c7ccc8c(c7)C(=O)N(C7CCC(=O)NC7=O)C8=O)CC6)CC5)nc4c3F)c12 (stereo not given)
Activity [3]: -1% | Activity [4]: 4% | Activity [5]: 9% | Activity [2]: 1%

SMILES: C#Cc1c(F)ccc2cc(O)cc(-c3ncc4c(N5CC6CCC(C5)N6)nc(OCCCN5CCN(CC(=O)N6CCN(c7cccc8c7C(=O)N(C7CCC(=O)NC7=O)C8=O)CC6)CC5)nc4c3F)c12 (stereo not given)
Activity [3]: 0% | Activity [4]: 7% | Activity [5]: 7% | Activity [2]: 2%

pIC50 [7]: 9.06 | pIC50 [9]: 8.38 | pIC50 [10]: 7.61 | pIC50 [11]: 7.69 | pIC50 [12]: 8.84 | pIC50 (AGS): 8.61 | pIC50 (ASPC1): 7.25
SMILES: C#Cc1c(F)ccc2cc(O)cc(-c3ncc4c(N5CC6CCC(C5)N6)nc(OC[C@@]56CCCN5C[C@H](F)C6)nc4c3F)c12 [MRTX-1133]
pIC50 [6]: 9.04 | inhibition in vivo at 1.81 mg/kg [8]: 58.7% | Activity [13]: Non-toxic | pIC50 [14]: 8.54

SMILES: C#Cc1c(F)ccc2cc(O)cc(-c3ncc4c(N5CC6CCC(C5)N6)nc(OCC5(CN6CCC7(CC6)CC(N6CCC(c8ccc(C9CCC(=O)NC9=O)cc8)CC6)C7)CC5)nc4c3F)c12 (stereo not given)
Activity [1]: 32% | Activity [2]: 81%

SMILES: C#Cc1c(F)ccc2cc(O)cc(-c3ncc4c(N5CC6CCC(C5)N6)nc(OCC5(CN6CCC7(CC6)CC(N6CCN(c8cccc9c8C(=O)N(C8CCC(=O)NC8=O)C9=O)CC6)C7)CC5)nc4c3F)c12 (stereo not given)
Activity [1]: 21% | Activity [2]: 34%

SMILES: C#Cc1c(F)ccc2cc(O)cc(-c3ncc4c(N5CC6CCC(C5)N6)nc(OCC5(CN6CCC7(CC6)CC(N6CCN(c8ccc9c(c8)C(=O)N(C8CCC(=O)NC8=O)C9=O)CC6)C7)CC5)nc4c3F)c12 (stereo not given)
Activity [1]: 48% | Activity [2]: 64%

SMILES: C#Cc1c(F)ccc2cc(O)cc(-c3ncc4c(N5CC6CCC(C5)N6)nc(OCC5(CN6CCC7(CC6)CC(N6CCN(c8ccc(N9CCC(=O)NC9=O)cc8)CC6)C7)CC5)nc4c3F)c12
Activity [1]: 6% | Activity [2]: 2%

SMILES: C#Cc1c(F)ccc2cc(O)cc(-c3ncc4c(N5CC6CCC(C5)N6)nc(OCC5(CN6CCC7(CC6)CC(N6CCC(c8cccc(C9CCC(=O)NC9=O)c8)CC6)C7)CC5)nc4c3F)c12 (stereo not given)
Activity [1]: -8% | Activity [2]: -20%

SMILES: C#Cc1c(F)ccc2cc(O)cc(-c3ncc4c(N5CC6CCC(C5)N6)nc(OCCCN5CCN(C(=O)CN6CCN(c7cccc8c7C(=O)N(C7CCC(=O)NC7=O)C8=O)CC6)CC5)nc4c3F)c12 (stereo not given)
Activity [3]: 8% | Activity [4]: 0% | Activity [5]: 7% | Activity [2]: 12%

SMILES: C#Cc1c(F)ccc2cc(O)cc(-c3ncc4c(N5CC6CCC(C5)N6)nc(OCC5(CN6CCN(c7ccc8c(c7)C(=O)N(C7CCC(=O)NC7=O)C8=O)CC6)CC5)nc4c3F)c12 (stereo not given)
Activity [3]: 58%

SMILES: C#Cc1c(F)ccc2cc(O)cc(-c3ncc4c(N5CC6CCC(C5)N6)nc(OCC5(CN6CCN(C(=O)CN7CCN(c8ccc9c(c8)C(=O)N(C8CCC(=O)NC8=O)C9=O)CC7)CC6)CC5)nc4c3F)c12 (stereo not given)
Activity [3]: 40%

SMILES: C#Cc1c(F)ccc2cc(O)cc(-c3ncc4c(N5CC6CCC(C5)N6)nc(OCC5(CN6CCC7(CC6)CCN(c6ccc8c(c6)C(=O)N(C6CCC(=O)NC6=O)C8=O)CC7)CC5)nc4c3F)c12 (stereo not given)
Activity [15]: 32% | Activity [2]: 57%

SMILES: C#Cc1c(F)ccc2cc(O)cc(-c3ncc4c(N5CC6CCC(C5)N6)nc(OCC5(CN6CCC7(CC6)CC(N6CCN(c8cc9c(cc8F)c(N8CCC(=O)N(C)C8=O)nn9C)CC6)C7)CC5)nc4c3F)c12
pIC50 (GTPase KRas): 8.40 | Activity (GP2d): inactive

SMILES: C#Cc1c(F)ccc2cc(O)cc(-c3ncc4c(N5CC6CCC(C5)N6)nc(OCCCN5CCN(C(=O)CN6CCN(c7ccc8c(c7)C(=O)N(C7CCC(=O)NC7=O)C8=O)CC6)CC5)nc4c3F)c12 (stereo not given)
Activity [3]: 10% | Activity [4]: 21% | Activity [5]: 23% | Activity [2]: 9%

SMILES: C#Cc1c(F)ccc2cc(O)cc(-c3ncc4c(N5CC6CCC(C5)N6)nc(OCC5(CN6CCC7(CC6)CC(N6CCC(c8ccc(NC9CCC(=O)NC9=O)cc8F)CC6)C7)CC5)nc4c3F)c12 (stereo not given)
Activity [1]: 84% | Activity [2]: 79%

SMILES: C#Cc1c(F)ccc2cc(O)cc(-c3ncc4c(N5CC6CCC(C5)N6)nc(OCC5(CN6CCC7(CC6)CC(N6CCC(c8ccc9c(c8)C(=O)N(C8CCC(=O)NC8=O)C9=O)CC6)C7)CC5)nc4c3F)c12 (stereo not given)
Activity [1]: 37% | Activity [2]: 59%

SMILES: C#Cc1c(F)ccc2cc(O)cc(-c3ncc4c(N5CC6CCC(C5)N6)nc(OCC5(CN6CCC7(CC6)CC(N6CCN(c8ccc(NC9%10CC(C9)C(=O)NC%10=O)cc8F)CC6)C7)CC5)nc4c3F)c12
Activity [1]: 68% | Activity [2]: 67%

SMILES: C#Cc1c(F)ccc2cc(O)cc(-c3ncc4c(N5CC6CCC(C5)N6)nc(OCC5(CN6CCC7(CC6)CC(N6CCC(c8cccc(N9CCC(=O)NC9=O)c8)CC6)C7)CC5)nc4c3F)c12
Activity [1]: 0% | Activity [2]: -10%

SMILES: C#Cc1c(F)ccc2cc(O)cc(-c3ncc4c(N5CC6CCC(C5)N6)nc(OCC5(CN6CCC7(CC6)CC(N6CCC(c8cccc9c8C(=O)N(C8CCC(=O)NC8=O)C9=O)CC6)C7)CC5)nc4c3F)c12 (stereo not given)
Activity [1]: -3% | Activity [2]: -12%
